{"source": "patent US9695155B2", "about": "“Herbicidal substituted pyrimidinyloxy benzene compounds” (E. I. DU PONT DE NEMOURS AND COMPANY, priority 2013, dated 2017)", "key": {"pigweed [1]": {"test_system": "pigweed", "test": "Test A preemergence", "assay_type": "in vivo, Amaranthus retroflexus", "in_short": "(§1)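 Compounds in non-phytotoxic solvent with surfactant applied as soil spray preemergence, or postemergence to plants 2-10 cm at one- to two-leaf stage, in loam/sand. After approximately 10 days in greenhouse, injury rated visually versus untreated controls, 0 (no effect) to 100 (complete control).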"}, "barnyardgrass [2]": {"test_system": "barnyardgrass", "test": "Test C flooded paddy test", "assay_type": "in vivo, Echinochloa crus-galli", "settings": "Flood, scale 0 to 100 (0 no effect, 100 complete control), 13 to 15 days", "source_text": "(§2) At time of treatment, test pots were flooded to 3 cm above the soil surface, treated by application of test compounds directly to the paddy water, and then maintained at that water depth for the duration of the test. Treated plants and controls were maintained in a greenhouse for 13 to 15 days, after which time all species were compared to controls and visually evaluated. […] A dash (-) response means no test result."}, "barnyardgrass [3]": {"test_system": "barnyardgrass", "test": "Test B flooded paddy test", "assay_type": "in vivo, Echinochloa crus-galli", "settings": "Flood, 250 g ai/ha; 0 to 100 scale where 0 is no effect and 100 is complete control", "in_short": "(§3)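 Compound added straight to paddy water, with pots kept flooded 3 cm above soil, on plants grown to the 2-leaf stage. Visual scoring 0-100 (100 = complete control) against untreated controls after 13 to 15 greenhouse days.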"}, "sedge, umbrella [4]": {"test_system": "sedge, umbrella", "test": "Test C flooded paddy test", "assay_type": "in vivo, Cyperus difformis", "settings": "Flood, scale 0 to 100 (0 no effect, 100 complete control), 13 to 15 days", "source_text": "as §2"}, "pigweed [5]": {"test_system": "pigweed", "test": "Test A postemergence", "assay_type": "in vivo, Amaranthus retroflexus", "settings": "0 to 100 scale where 0 is no effect and 100 is complete control", "in_short": "as §1"}, "velvetleaf [6]": {"test_system": "velvetleaf", "test": "Test A preemergence", "assay_type": "in vivo, Abutilon theophrasti", "in_short": "as §1"}, "Heteranthera limosa": {"test_system": "Heteranthera limosa", "test": "Test B flooded paddy test", "assay_type": "in vivo", "settings": "Flood, 250 g ai/ha; 0 to 100 scale where 0 is no effect and 100 is complete control", "in_short": "as §3"}, "giant foxtail [7]": {"test_system": "giant foxtail", "test": "Test A postemergence", "assay_type": "in vivo, Setaria faberii", "settings": "0 to 100 scale where 0 is no effect and 100 is complete control", "in_short": "as §1"}, "giant foxtail [8]": {"test_system": "giant foxtail", "test": "Test A preemergence", "assay_type": "in vivo, Setaria faberii", "in_short": "as §1"}, "barnyardgrass [9]": {"test_system": "barnyardgrass", "test": "Test A preemergence", "assay_type": "in vivo, Echinochloa crus-galli", "in_short": "as §1"}, "corn [10]": {"test_system": "corn", "test": "Test A postemergence", "assay_type": "in vivo, Zea mays", "in_short": "as §1"}, "ducksalad": {"test_system": "ducksalad", "test": "Test C flooded paddy test", "assay_type": "in vivo, Heteranthera limosa", "settings": "Flood, scale 0 to 100 (0 no effect, 100 complete control), 13 to 15 days", "source_text": "as §2"}, "wheat [11]": {"test_system": "wheat", "test": "Test A postemergence", "assay_type": "in vivo, Triticum aestivum", "settings": "0 to 100 scale where 0 is no effect and 100 is complete control", "in_short": "as §1"}, "rice [12]": {"test_system": "rice", "test": "Test C flooded paddy test", "assay_type": "in vivo, Oryza sativa", "settings": "Flood, scale 0 to 100 (0 no effect, 100 complete control), 13 to 15 days", "source_text": "as §2"}, "morningglory [13]": {"test_system": "morningglory", "test": "Test A preemergence", "assay_type": "in vivo, Ipomoea spp.", "in_short": "as §1"}, "sedge, umbrella [14]": {"test_system": "sedge, umbrella", "test": "Test B flooded paddy test", "assay_type": "in vivo, Cyperus difformis", "settings": "Flood, 250 g ai/ha; 0 to 100 scale where 0 is no effect and 100 is complete control", "in_short": "as §3"}, "large (Lg) crabgrass [15]": {"test_system": "large (Lg) crabgrass", "test": "Test A preemergence", "assay_type": "in vivo, Digitaria sanguinalis", "in_short": "as §1"}, "large (Lg) crabgrass [16]": {"test_system": "large (Lg) crabgrass", "test": "Test A postemergence", "assay_type": "in vivo, Digitaria sanguinalis", "in_short": "as §1"}, "rice [17]": {"test_system": "rice", "test": "Test B flooded paddy test", "assay_type": "in vivo, Oryza sativa", "settings": "Flood, 250 g ai/ha; 0 to 100 scale where 0 is no effect and 100 is complete control", "in_short": "as §3"}, "morningglory [18]": {"test_system": "morningglory", "test": "Test A postemergence", "assay_type": "in vivo, Ipomoea spp.", "settings": "0 to 100 scale where 0 is no effect and 100 is complete control", "in_short": "as §1"}, "wheat [19]": {"test_system": "wheat", "test": "Test A preemergence", "assay_type": "in vivo, Triticum aestivum", "in_short": "as §1"}, "corn [20]": {"test_system": "corn", "test": "Test A preemergence", "assay_type": "in vivo, Zea mays", "in_short": "as §1"}, "barnyardgrass [21]": {"test_system": "barnyardgrass", "test": "Test A postemergence", "assay_type": "in vivo, Echinochloa crus-galli", "in_short": "as §1"}, "velvetleaf [22]": {"test_system": "velvetleaf", "test": "Test A postemergence", "assay_type": "in vivo, Abutilon theophrasti", "settings": "0 to 100 scale where 0 is no effect and 100 is complete control", "in_short": "as §1"}, "[23]": {"settings": "125 g ai/ha, 0 to 100 scale where 0 is no effect and 100 is complete control"}, "[24]": {"settings": "500 g ai/ha, 0 to 100 scale, 0 no effect, 100 complete control, approx. 10 days"}, "[25]": {"settings": "500 g ai/ha, 0 to 100 scale, 0 no effect, 100 complete control"}}}
{"smiles": "FC(F)c1cnn(-c2ccccc2Oc2ncc(Br)cn2)c1", "note": "[Compound 81]", "values": [{"measurement": "Plant response rating, Pigweed", "setting": "pigweed [1]; [23]", "value": 0}, {"measurement": "Pigweed plant response rating", "setting": "pigweed [1]; [24]", "value": 0}, {"measurement": "Plant response rating, Barnyardgrass", "setting": "barnyardgrass [2]; 31 g ai/ha", "value": 0}, {"measurement": "Plant response rating, Barnyardgrass", "setting": "barnyardgrass [2]; 62 g ai/ha", "value": 0}, {"measurement": "Plant response rating, Barnyardgrass", "setting": "barnyardgrass [2]; 125 g ai/ha", "value": 0}, {"measurement": "Plant response rating, Barnyardgrass", "setting": "barnyardgrass [2]; 250 g ai/ha", "value": 0}, {"measurement": "Plant response rating, Barnyardgrass", "setting": "barnyardgrass [3]", "value": 0}, {"measurement": "Plant response rating, Sedge, Umbrella", "setting": "sedge, umbrella [4]; 31 g ai/ha", "value": 0}, {"measurement": "Plant response rating, Sedge, Umbrella", "setting": "sedge, umbrella [4]; 62 g ai/ha", "value": 50}, {"measurement": "Plant response rating, Sedge, Umbrella", "setting": "sedge, umbrella [4]; 125 g ai/ha", "value": 70}, {"measurement": "Plant response rating, Sedge, Umbrella", "setting": "sedge, umbrella [4]; 250 g ai/ha", "value": 90}, {"measurement": "Plant response rating, Pigweed", "setting": "pigweed [5]; 125 g ai/ha", "value": 100}, {"measurement": "Plant response rating, Pigweed", "setting": "pigweed [5]; 500 g ai/ha", "value": 100}, {"measurement": "Plant response rating, Velvetleaf", "setting": "velvetleaf [6]; [23]", "value": 50}, {"measurement": "Velvetleaf plant response rating", "setting": "velvetleaf [6]; [24]", "value": 100}, {"measurement": "Plant response rating, Ducksalad", "setting": "Heteranthera limosa", "value": 90}, {"measurement": "Plant response rating, Foxtail, Giant", "setting": "giant foxtail [7]; 125 g ai/ha", "value": 50}, {"measurement": "Plant response rating, Foxtail, Giant", "setting": "giant foxtail [7]; 500 g ai/ha", "value": 90}, {"measurement": "Plant response rating, Foxtail, Giant", "setting": "giant foxtail [8]; [23]", "value": 80}, {"measurement": "Foxtail, Giant plant response rating", "setting": "giant foxtail [8]; [24]", "value": 100}, {"measurement": "Plant response rating, Barnyardgrass", "setting": "barnyardgrass [9]; [23]", "value": 0}, {"measurement": "Barnyardgrass plant response rating", "setting": "barnyardgrass [9]; [24]", "value": 70}, {"measurement": "Plant response rating, Corn", "setting": "corn [10]; [23]", "value": 50}, {"measurement": "Plant response rating, Corn", "setting": "corn [10]; [25]", "value": 30}, {"measurement": "Plant response rating, Ducksalad", "setting": "ducksalad; 31 g ai/ha", "value": 30}, {"measurement": "Plant response rating, Ducksalad", "setting": "ducksalad; 62 g ai/ha", "value": 40}, {"measurement": "Plant response rating, Ducksalad", "setting": "ducksalad; 125 g ai/ha", "value": 60}, {"measurement": "Plant response rating, Ducksalad", "setting": "ducksalad; 250 g ai/ha", "value": 90}, {"measurement": "Plant response rating, Wheat", "setting": "wheat [11]; 125 g ai/ha", "value": 10}, {"measurement": "Plant response rating, Wheat", "setting": "wheat [11]; 500 g ai/ha", "value": 60}, {"measurement": "Plant response rating, Rice", "setting": "rice [12]; 31 g ai/ha", "value": 0}, {"measurement": "Plant response rating, Rice", "setting": "rice [12]; 62 g ai/ha", "value": 0}, {"measurement": "Plant response rating, Rice", "setting": "rice [12]; 125 g ai/ha", "value": 0}, {"measurement": "Plant response rating, Rice", "setting": "rice [12]; 250 g ai/ha", "value": 0}, {"measurement": "Plant response rating, Morningglory", "setting": "morningglory [13]; [23]", "value": 0}, {"measurement": "Morningglory plant response rating", "setting": "morningglory [13]; [24]", "value": 60}, {"measurement": "Plant response rating, Sedge, Umbrella", "setting": "sedge, umbrella [14]", "value": 80}, {"measurement": "Plant response rating, Crabgrass, Large", "setting": "large (Lg) crabgrass [15]; [23]", "value": 90}, {"measurement": "Crabgrass, Large plant response rating", "setting": "large (Lg) crabgrass [15]; [24]", "value": 100}, {"measurement": "Plant response rating, Crabgrass, Large", "setting": "large (Lg) crabgrass [16]; [23]", "value": 40}, {"measurement": "Plant response rating, Crabgrass, Large", "setting": "large (Lg) crabgrass [16]; [25]", "value": 90}, {"measurement": "Plant response rating, Rice", "setting": "rice [17]", "value": 0}, {"measurement": "Plant response rating, Morningglory", "setting": "morningglory [18]; 125 g ai/ha", "value": 50}, {"measurement": "Plant response rating, Morningglory", "setting": "morningglory [18]; 500 g ai/ha", "value": 100}, {"measurement": "Plant response rating, Wheat", "setting": "wheat [19]; [23]", "value": 10}, {"measurement": "Wheat plant response rating", "setting": "wheat [19]; [24]", "value": 10}, {"measurement": "Plant response rating, Corn", "setting": "corn [20]; [23]", "value": 0}, {"measurement": "Corn plant response rating", "setting": "corn [20]; [24]", "value": 10}, {"measurement": "Plant response rating, Barnyardgrass", "setting": "barnyardgrass [21]; [23]", "value": 50}, {"measurement": "Plant response rating, Barnyardgrass", "setting": "barnyardgrass [21]; [25]", "value": 100}, {"measurement": "Plant response rating, Velvetleaf", "setting": "velvetleaf [22]; 125 g ai/ha", "value": 100}, {"measurement": "Plant response rating, Velvetleaf", "setting": "velvetleaf [22]; 500 g ai/ha", "value": 100}]}
